Test results published in patent US7998949B2, “Bicyclic heterocycles, drugs containing said compounds, use thereof, and method for production thereof” (Boehringer Ingelheim International GmbH, priority 2007, dated 2011).

Target: T1, human EGF-R (Homo sapiens, UniProt P00533)
T1 construct: expressed in transfected cells
Assay: Inhibition of the EGFR-dependent proliferation (EGF-stimulated cell line expressing human EGF-R, Cell Titer 96 assay)
Assay type: cell-based
Conditions: murine haematopoietic cell line expressing functional human EGF-R; 20 ng/ml human EGF; 48 hours at 37° C.
Method: A murine haematopoietic cell line is genetically modified so as to express functional human EGF-R. The proliferation of this cell line can therefore be stimulated by EGF.
The test is carried out as follows: • The cells are cultivated in RPMI/1640 medium. The proliferation is stimulated with 20 ng/ml of human EGF (Promega). To investigate the inhibitory activity of the compounds according to the invention these compounds are dissolved in 100% dimethylsulphoxide (DMSO) and added to the cultures in various dilutions, the maximum DMSO concentration being 1%. The cultures are incubated for 48 hours at 37° C.
In order to determine the inhibitory activity of the compounds according to the invention the relative cell number is measured in O.D. units using the Cell Titer 96™ AQueous Non-Radioactive Cell Proliferation Assay (Promega). The relative cell number is calculated as a percentage of the control and the concentration of active substance which inhibits the proliferation of the cells by 50% (IC50) is derived therefrom.

T1 sequence (P00533 25-1210): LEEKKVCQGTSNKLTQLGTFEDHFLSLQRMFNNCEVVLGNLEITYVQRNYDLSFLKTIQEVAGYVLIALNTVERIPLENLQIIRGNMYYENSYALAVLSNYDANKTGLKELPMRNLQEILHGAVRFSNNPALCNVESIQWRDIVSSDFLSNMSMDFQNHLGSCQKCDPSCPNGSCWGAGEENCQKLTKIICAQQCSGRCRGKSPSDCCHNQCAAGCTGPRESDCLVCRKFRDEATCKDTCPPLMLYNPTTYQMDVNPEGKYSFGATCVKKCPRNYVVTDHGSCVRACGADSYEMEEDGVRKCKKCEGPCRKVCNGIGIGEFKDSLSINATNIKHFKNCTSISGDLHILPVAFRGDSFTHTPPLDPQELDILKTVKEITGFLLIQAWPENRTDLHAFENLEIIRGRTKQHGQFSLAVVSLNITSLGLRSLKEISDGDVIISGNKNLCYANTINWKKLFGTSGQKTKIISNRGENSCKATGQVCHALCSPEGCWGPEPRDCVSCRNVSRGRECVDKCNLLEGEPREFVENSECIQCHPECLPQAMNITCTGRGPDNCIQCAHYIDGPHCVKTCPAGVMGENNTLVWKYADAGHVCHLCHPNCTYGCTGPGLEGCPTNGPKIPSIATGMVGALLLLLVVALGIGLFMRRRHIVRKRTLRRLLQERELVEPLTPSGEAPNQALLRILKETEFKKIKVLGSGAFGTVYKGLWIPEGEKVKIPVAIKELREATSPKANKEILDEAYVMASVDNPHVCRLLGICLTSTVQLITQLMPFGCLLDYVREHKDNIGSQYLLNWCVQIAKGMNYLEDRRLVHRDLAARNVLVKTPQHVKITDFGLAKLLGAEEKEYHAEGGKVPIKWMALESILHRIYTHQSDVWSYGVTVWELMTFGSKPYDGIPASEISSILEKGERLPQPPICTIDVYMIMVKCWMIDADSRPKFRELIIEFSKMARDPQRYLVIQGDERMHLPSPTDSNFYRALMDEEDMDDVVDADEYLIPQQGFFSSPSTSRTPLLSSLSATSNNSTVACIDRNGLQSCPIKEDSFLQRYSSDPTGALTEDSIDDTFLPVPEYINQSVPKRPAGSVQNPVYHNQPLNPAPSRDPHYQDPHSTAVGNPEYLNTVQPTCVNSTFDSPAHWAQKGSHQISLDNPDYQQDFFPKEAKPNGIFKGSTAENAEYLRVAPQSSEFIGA

IC50, 1 nM:
COc1cc2ncnc(Nc3cccc(Cl)c3F)c2cc1O[C@H]1CC[C@H](N2CCOCC2)CC1 [1 (trans compound), 4-[(3-chloro-2-fluoro-phenyl)amino]-6-[trans-4-(morpholin-4-yl)-cyclohexyloxy]-7-methoxy-quinazoline]
COc1cc2ncnc(Nc3cccc(Cl)c3F)c2cc1O[C@H]1CC[C@H](N2CCN(C)C(=O)C2)CC1 [(36)]
COc1cc2ncnc(Nc3cccc(Cl)c3F)c2cc1O[C@H]1CC[C@H](N2CCC(C#N)CC2)CC1 [(44)]
COc1cc2ncnc(Nc3cccc(Cl)c3F)c2cc1O[C@H]1CC[C@H](N2CC[C@@H](O)C2)CC1 [1(1) (trans compound), 4-[(3-chloro-2-fluoro-phenyl)amino]-6-[(R)-trans-4-(3-hydroxy-pyrrolidin-1-yl)-cyclohexyloxy]-7-methoxy-quinazoline]
COc1cc2ncnc(Nc3cccc(Cl)c3F)c2cc1O[C@H]1CC[C@H](N2CCNC(=O)C2)CC1 [1(3) (trans compound), 4-[(3-chloro-2-fluoro-phenyl)amino]-6-[trans-4-(3-oxo-piperazin-1-yl)-cyclohexyloxy]-7-methoxy-quinazoline]
COc1cc2ncnc(Nc3cccc(Cl)c3F)c2cc1O[C@H]1CC[C@H](N2CCC[C@H]2C(N)=O)CC1 [1(5) (trans compound), 4-[(3-chloro-2-fluoro-phenyl)amino]-6-{(S)-trans-4-[2-(aminocarbonyl)-pyrrolidin-1-yl]-cyclohexyloxy]-7-methoxy-quinazoline]
